In patent US9718771B2, “Aniline derivative, pharmaceutical composition containing same, and use thereof” (Kissei Pharmaceutical Co., Ltd., priority 2014, dated 2017):

What was measured:
human S1P1 (EDG-1) = human S1P1 (EDG-1) (Homo sapiens (Human), UniProt P21453); test: Confirmation test of antagonistic activity for human S1P1 receptor (35S-GTP binding, cell membranes); assay type: biochemical; conditions: inhibition of 35S-GTP binding induced by S1P1 receptor selective agonist; HEK293 membranes expressing human S1P1
Description: Confirmation Test of Antagonistic Activity for Human S1P1 Receptor
Test compounds were tested by reduction of functional binding activity of ^35S-GTP (guanosine 5′-O-[gamma-thio] triphosphate, PerkinElmer) to G protein using cell membranes expressing human S1P1 (EDG-1). S1P1-pcDNA3.1/V5-His-Topo vector was prepared by inserting cDNA (NM_001400) encoding human S1P1 into the expression vector, pcDNA3.1/V5-His-Topo (registered trademark) (Invitrogen). Next, the above S1P1-pcDNA3.1 vector was transfected into HEK293 cells by Lipofectamine2000 (registered trademark) (Invitrogen). The transfected cells were incubated with D-MEM liquid medium each containing 10% FBS (Fetal bovine serum), 100 U/mL penicillin, 100 μg/mL streptomycin and 1 mg/mL Geneticin (registered trademark) (Invitrogen) in an incubator under the condition of 5% CO2 at 37° C. and Geneticin (registered mark)-resistant cell line stably expressing S1P1 were obtained. The obtained stably S1P1-expressing cells were incubated with D-MEM liquid medium each containing 10% FBS and 0.5 mg/mL Geneticin (registered trademark) in an incubator under the condition of 5% CO2 at 37° C. The cells grown to confluence were harvested by a buffer solution containing 50 mM Tris, 2 mM EDTA (ethylmediaminetetraacetic acid) and 125 mM sodium chloride, and centrifuged at 1880×g, 4° C. for 10 minutes. After a supernatant was removed, a cell pellet was resuspended by the same buffer solution. For making cell membranes fragile, this cell suspension was frozen at −80° C. and then thawed. The cells were centrifuged at 1880×g, 4° C. for 10 minutes, and a supernatant was removed. The cell pellet was suspended by adding the same buffer solution and a fracture solution (10 mM sodium bicarbonate and 5 mM EDTA, pH 7.5) at a ratio of 2:1. The cells were fractured by subjecting the cell suspension to ultrasonication, and a cell membrane fraction was isolated by centrifugation at 1880×g, 4° C. for 10 minutes and ultracentrifugation of the supernatant at 80000×g, 4° C. for 30 minutes. A pellet of the cell membrane fraction was suspended by the fracture solution containing protease inhibitor cocktail (Roche) and stored at −80° C. until use. A protein concentration of the cell membrane fraction was determined using BCA Protein Assay Kit (Pierce) in accordance with an attached protocol.
Inhibitory activity evaluation was performed by multi-screen (registered trademark) HTS 96-well plate (Millipore) using the cell membrane fraction stably expressing S1P1 obtained by the above operation. 25 μL of assay solution (50 mM Tris, 100 mM sodium chloride, 5 mM magnesium chloride, 1 mM EDTA, 1 mM DTT (dithiothreitol), 10 μM GDP (guanosine diphosphate) and 0.5% BSA (bovine serum albumin), pH 7.4), 25 μL of test compounds solution diluted by assay solution and 25 μL of the membrane fraction (0.2 μg protein/μL) were added to each well, and the mixture was gently shaken at room temperature: for 30 minutes. Then, 25 μL of ^35S-GTP, and 25 μL of 50 nM S1P1 receptor selective agonist (1-[4-(4-phenyl-5-trifluoromethylthiophen-2-ylmethoxy)benzyl]azetidine-3-carboxylic acid, “J. Med. Chem.”, 2004, vol. 47, pp. 6662-6665, compound 18) were added to each well, respectively, and it was reacted at room temperature for 60 minutes. After the reaction, a reaction solution of each well was suction-filtered. After suction filtration, ice-colded wash solution (50 mM Tris, 100 mM sodium chloride, […] and 1 mM EDTA, pH 7.4) was added to each well, and moreover filters were washed by suction filtration. This wash procedure was performed three times. A bottom of the plate containing the filters was dried at 60° C. After drying, 30 μL of MicroScinti-40 (PerkinElmer) was added to each well, and the radioactivity adsorbed on the filter was determined by TopCount NXT (registered trademark) (PerkinElmer) after shaking for 30 minutes at room temperature. […]

EAE model = test: Drug efficiency evaluation in experimental autoimmune encephalomyelitis (EAE) model; assay type: in vivo; conditions: DA rats, oral twice a day, 15 mg/kg, day 0 to day 13; mean ± standard error
Description: The Drug Efficiency Evaluation in Experimental Autoimmune Encephalomyelitis (EAE) Model
An EAE model (experimental autoimmune encephalomyelitis, hereinafter referred to as EAE), which is widely used as an animal model reflecting the pathological condition of human multiple sclerosis was prepared using DA rats (Japan SLC, 8 to 9-week-old in use) as described below, and the effect of test compound was confirmed.
Firstly, the emulsion for immunization was prepared by the method described below. After rats were sacrificed by exsanguination from the carotid artery under anesthesia of isoflurane, two spinal cords and a brain were collected. […]
The EAE score was evaluated daily to day 13 as day 0 when DA rats were immunized. The EAE score was evaluated as 0-5 points: 0 points: no symptoms, 1 point: walkable straight with normal our limbs but complete loss of tail tonus, 2 points: slight paralysis of a limb (especially hind limbs) and walkable wobbly, 3 points: full paralysis of two limbs (especially hind limbs) and walkable with a limp, 4 points: tetraplegia, moribund or abasia, 5 points: dead.
The area under the curve was calculated based on the variation per day of EAE score during evaluation periods from immunization day 0 to day 13, and used as an index for effects of test compounds.

human S1P1 (EDG-1), sequence (P21453 whole entry): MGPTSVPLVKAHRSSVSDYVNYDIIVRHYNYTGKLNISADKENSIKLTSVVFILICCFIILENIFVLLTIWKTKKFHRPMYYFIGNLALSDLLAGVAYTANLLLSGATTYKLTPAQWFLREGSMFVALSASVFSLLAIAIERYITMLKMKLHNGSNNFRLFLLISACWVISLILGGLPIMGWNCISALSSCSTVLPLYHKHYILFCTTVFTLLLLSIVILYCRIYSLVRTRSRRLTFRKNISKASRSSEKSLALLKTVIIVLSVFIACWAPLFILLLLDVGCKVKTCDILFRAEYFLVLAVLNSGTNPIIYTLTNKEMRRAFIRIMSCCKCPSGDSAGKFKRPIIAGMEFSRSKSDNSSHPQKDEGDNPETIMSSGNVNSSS

Compound	IC50 (human S1P1 (EDG-1)) [nM]	Area under the curve of EAE score (EAE model)
CCN(c1ccc(Cl)c(C)c1)C(C)c1ccc(C)c(CN2CC(C(=O)O)C2)c1 (stereo not drawn) [Compound 2-6, 1-(5-{1-[(4-Chloro-3-methylphenyl)(ethyl)amino]ethyl}-2-methylbenzyl)azetidine-3-carboxylic acid]	1	–
CCN(c1ccc(Cl)c(C(F)(F)F)c1)C(C)c1ccc(C)c(CN2CC(C(=O)O)C2)c1 (stereo not drawn) [Compound 2-7, 1-(5-{1-[(4-Chloro-3-trifluoromethylphenyl)(ethyl)amino]ethyl}-2-methylbenzyl)-azetidine-3-carboxylic acid]	1.2	6.1 ± 1.6
